Data on eight compounds can be found in US4486445A, “Justicidin insecticidal and antiviral compounds” (E. I. Du Pont de Nemours and Company, priority 1983, dated 1984).

Structures are written as SMILES. Values after ≈ are worked out from the molar mass of the structure shown. Like-named read-outs stand apart in the source and are kept apart here.

Series [1] relates to Human Rhino Virus (HRV-2). Description: inhibition of HRV-2 in HeLa cells. It is filed as cell-based, Human rhinovirus HRV-2. The note with it: Rhinovirus A; for inhibition at 0.016 µg/mL: HRV2, 0.016 μg/ml; for inhibition at 0.08 µg/mL: HRV2, 0.08 μg/ml; for inhibition at 0.4 µg/mL: HRV2, 0.4 μg/ml; for inhibition at 2 µg/mL: HRV2, 2 μg/ml; for inhibition at 10 µg/mL: HRV2, 10 μg/ml.

A further series relates to Aedes egypti larvae. The series is described as follows: insecticidal activity against larvae of A. egypti in water. In kind it is in vivo. The following applies: larvae of A. egypti in H2O; for LC50: Aedes, read-out: EC50 (effective kill concentration for 50% of the experimental larvae). As to the method:
The insecticidal activity of the crude acetone/water extracts of Justicia extensa, prepared according to the isolation procedure described previously, was tested against laboratory cultures of the mosquito species Aedes egypti (Linnaeus) and southern army worm (SAW) Spodoptera eridania (Cramer). Extracts of leaves, branches and roots were employed in each test.
In tests against larvae of A. egypti, 10 mg of the crude plant extract was thoroughly dispersed in 20 ml of water in a test tube to which 10 first instar larvae were added.

Another series relates to HeLa cells. In kind it is cell-based.
For a further series, the system named is Herpes Type 1-strain VR3. Description: plaque formation inhibition, Herpes Type 1 in HeLa cells. It is filed as cell-based. The following applies: for antiviral activity against Herpes Type 1: HeLa cells.
The test system of series [2] is Herpes Type 2-Alabama strain. The series is described as follows: plaque formation inhibition, Herpes Type 2 in HeLa cells. The following applies: for antiviral activity against Herpes Type 2: HeLa cells. In kind it is cell-based.

For `COc1cc2c(OC)c3c(c(-c4ccc5c(c4)OCO5)c2cc1OC)C(=O)OC3F` (racemic) [Compound 14, (±)-9-(1,3-Benzodioxol-5-yl)-3-fluoro-4,6,7-trimethoxynaphtho[2,3-c]furan-1(3H)-one], in series [1] (400 PFU), the inhibition at 0.016 µg/mL stood at 0%, the inhibition at 0.08 µg/mL is 0%, the inhibition at 0.4 µg/mL is 0% and the inhibition at 2 µg/mL stood at 21%. Moreover, in series [1] (400 PFU), the inhibition at 10 µg/mL was 79%. In the series on Aedes egypti larvae, the LC50 amounted to 0.7 µg/mL (≈ 1.7 µM).

Consider `COc1cc2c(OC)c3c(c(-c4ccc5c(c4)OCO5)c2cc1OC)C(=O)OC3OC(C)=O` (racemic) [Compound 15], for which, in series [1] (400 PFU), the inhibition at 0.016 µg/mL is 0%, the inhibition at 0.08 µg/mL was 0%, the inhibition at 0.4 µg/mL was found to be 0% and the inhibition at 2 µg/mL worked out at 0%. In addition, in series [1] (400 PFU), the inhibition at 10 µg/mL was 72%. In addition, the LC50 in the series with Aedes egypti larvae came out at 1 µg/mL (≈ 2.21 µM).

As for `COc1cc2c(OC)c3c(c(-c4ccc5c(c4)OCO5)c2cc1OC)C(=O)OC3O` (racemic) [Compound 16, (±)-9-(1,3-Benzodioxol-5-yl)-3-hydroxy-4,6,7-trimethoxynaphtho[2,3-c]furan-1(3H)-one], in series [1] (400 PFU), the inhibition at 0.016 µg/mL came out at 0%, the inhibition at 0.08 µg/mL stood at 0%, the inhibition at 0.4 µg/mL was 0% and the inhibition at 2 µg/mL was found to be 0%. In series [1] (400 PFU), the inhibition at 10 µg/mL turned out to be 98%. For the same compound, the LC50 with Aedes egypti larvae worked out at 10 µg/mL (≈ 24.4 µM).

`CCCOC1OC(=O)c2c1c(OC)c1cc(OC)c(OC)cc1c2-c1ccc2c(c1)OCO2` (racemic) [Compound 17, (±)-9-(1,3-Benzodioxol-5-yl)-3-propoxy-4,6,7-trimethoxynaphtho[2,3-c]furan-1(3H)-one]: the cytotoxicity result in the series with HeLa cells (1 μg/ml) is listed as “cytotoxic”. In addition, the inhibition at 0.1 µg/mL in the series on Herpes Type 1-strain VR3 (0.1 μg/ml, HeLa, read-out: plaque formation inhibition against Type 1 (average)) amounted to 71%. The “antiviral activity against Herpes Type 1” value with Herpes Type 1-strain VR3 is recorded as “demonstrated antiviral activity”. Also, in series [1] (200 PFU), the inhibition at 0.016 µg/mL was not below 100%, the inhibition at 0.08 µg/mL is not below 100%, the inhibition at 0.4 µg/mL is not below 100% and the inhibition at 2 µg/mL is not below 74%. For the same compound, the LC50 with Aedes egypti larvae stood at 0.8 µg/mL (≈ 1.77 µM). Also, the inhibition at 0.1 µg/mL in series [2] (0.1 μg/ml, HeLa, read-out: plaque formation inhibition against Type 2 (average)) is 91%. Further, the “antiviral activity against Herpes Type 2” value in series [2] is listed as “demonstrated antiviral activity”.

`CCCCCCCSC1OC(=O)c2c1c(OC)c1cc(OC)c(OC)cc1c2-c1ccc2c(c1)OCO2` (centres unmarked) [Compound 18]: the cytotoxicity entry in the series on HeLa cells (64 and 16 μg/ml) was “cytotoxic”. Further, the inhibition at 1 µg/mL with Herpes Type 1-strain VR3 (1 μg/ml, HeLa, read-out: inhibition against Type 1) came out at 17%. Besides, the inhibition at 4 µg/mL in the series with Herpes Type 1-strain VR3 (4 μg/ml, HeLa, read-out: inhibition against Type 1) was 81%. Also, the “antiviral activity against Herpes Type 1” value in the series with Herpes Type 1-strain VR3 is reported as “demonstrated antiviral activity”. Further, in series [1] (200 PFU), the inhibition at 0.016 µg/mL stood at 80%, the inhibition at 0.08 µg/mL is not below 100% and the inhibition at 0.4 µg/mL is not below 100%. For the same compound, the inhibition at 1 µg/mL in series [2] (1 μg/ml, HeLa, read-out: inhibition against Type 2) was 16%. Moreover, the inhibition at 4 µg/mL in series [2] (4 μg/ml, HeLa, read-out: inhibition against Type 2) was found to be 77%. For the same compound, the “antiviral activity against Herpes Type 2” value in series [2] is given as “demonstrated antiviral activity”.

As for `COc1cc2c(OC)c3c(c(-c4ccc5c(c4)OCO5)c2cc1OC)C(=O)OC3OC(C)C` (centres unmarked) [Compound 19], the cytotoxicity entry in the series on HeLa cells (1, 4, 16 and 64 μg/ml) was “demonstrated cytotoxic properties”. In series [1] (200 PFU), the inhibition at 0.016 µg/mL is 100%, the inhibition at 0.08 µg/mL was not below 100%, the inhibition at 0.4 µg/mL worked out at 107% and the inhibition at 2 µg/mL is 14%. Besides, in the series with Aedes egypti larvae, the LC50 came out at 0.7 µg/mL (≈ 1.55 µM).

Regarding `CCCCCCCCCCCCOC1OC(=O)c2c1c(OC)c1cc(OC)c(OC)cc1c2-c1ccc2c(c1)OCO2` (centres unmarked) [Compound 20], in series [1] (200 PFU), the inhibition at 0.016 µg/mL was determined as 0%, the inhibition at 0.08 µg/mL stood at 0%, the inhibition at 0.4 µg/mL turned out to be 10% and the inhibition at 2 µg/mL was determined as 74%. For the same compound, the inhibition at 10 µg/mL in series [1] (200 PFU) is 83%.

On to `COc1cc2c(O)c3c(c(-c4ccc5c(c4)OCO5)c2cc1OC)C(=O)OC3` [Diphyllin, 9-(1,3-Benzodioxol-5-yl)-6,7-dimethoxy-4-hydroxynaphtho[2,3-c]furan-1(3H)-one, reference compound], for which, in the series with Aedes egypti larvae, the “EC50 (effective kill concentration for 50% of the experimental larvae)” value is on record as “not active”.
